Data from patent publication US9018173B2, “Materials and methods for suppressing inflammatory and neuropathic pain” (Indiana University Research and Technology Corp., priority 2010, dated 2015).
Residues, ends and D or L forms follow the SMILES beside them. No end group written: not given here.

Assays:
[1] = test system: capsaicin-induced meningeal blood flow changes
[2] = Biodistribution after i.p. injection (dot blot, FITC fluorescence); settings: 25 mg/kg i.p.
[3] = test system: anxiety-associated behavior; assay: Light-Dark Box test (LDBT); type: in vivo, C57BL6 mice
Experimental: The light-dark box test and the elevated plus maze were used as measures of anxiety-associated behaviors. The tail suspension test was performed to evaluate despair- and depression-associated behavior. Anxiety-behavior testing Anxiety occurs when there is conflict between risk and reward. The Light-Dark Box test (LDBT) and the elevated plus maze (EPM) are accepted tests of anxiety-associated behavior that assess the conflict mice have against hiding in enclosed dark areas (i.e., dark box or closed arm) and their tendency to explore novel environments (i.e., white box or open arm). Lalonde, R. & Strazielle, C. […] J. Neurosci. Methods. 171, 48-52 (2008). These tests are also sensitive to anxiolytic drug treatments. Light-Dark Box test as a measure of anxiety-associated behavior. For the light-dark box test (LDBT), there were two adjoined light and dark compartments boxes with a 7 cm square opening to allow mice to move between them. The black box was covered (20 cm×40 cm×30 cm height) and the white box (20 cm×40 cm×30 cm height) was open and illuminated (40 W). Each mouse was placed into the white compartment and the white compartment was video recorded for later analyses using ANY-maze software (version 4.75, Stoelting, Wood Dale, Ill.) which is a video tracking system designed to automate testing in behavioral experiments. The main parameters were duration of time spent in the light box; the latency to enter the dark box; and the number of transitions between the light and dark box.

[4] = test system: anxiety-associated behavior; assay: Elevated plus maze (EPM); type: in vivo, C57BL6 mice
[5] = test system: depression/despair-associated behavior; assay: Tail suspension test (TST); type: in vivo, C57BL6 mice
Experimental: The light-dark box test and the elevated plus maze were used as measures of anxiety-associated behaviors. The tail suspension test was performed to evaluate despair- and depression-associated behavior.
Depression/Despair-behavior testing. Since rodents such as mice and rats display immobile postures when placed in inescapable stressful situations, immobility behavior in the tail suspension test (TST) or forced swim test (FST) is used as a measure of “depression” or “despair”-associated behavior. Furthermore, administering antidepressant treatments prior to testing reduces immobility behavior. Therefore TST and FST are often used to screen novel drugs for depressant or anti-depressant properties.
Tail suspension test as a measure of depression-associated behavior. Immediately following the EPM test, the TST was conducted according to standard procedure between 8:00 AM and 2:00 PM. Cryan, J. F., Mombereau, C., & Vassout, A. The tail suspension test as a model for assessing antidepressant activity: review of pharmacological and genetic studies in mice. Neurosci. Biobehay. Rev. 29, 571-625 (2005). Briefly, each mouse was suspended by the tail at a height of 40 cm by taping the rail to a horizontal bar so that the tail is vertical to the bar. Behavior was video recorded for 5 min and later analyzed by an experimenter, whom was blind to the treatments. […] If a mouse climbed its tail the mouse was gently pulled back down and the trial continued. Mice that climbed their tails for more than 20% of the trial (i.e. >60 seconds) were eliminated from the final analysis. Duration and frequency of immobility was the main parameters measured. Mice injected with the scrambled control peptide were immobile approximately 26% of the TST duration which is equivalent to baseline immobility durations (approximately 27%) observed in C57B16 mice in another recent study.

[6] = C57BL6 mice, 10 mg/kg i.p., 1 h after injection, 5 min test

CGRP8-37: CGRP antagonist (VTHRLAGLLSRSGGVVKNNFVPTNVGSKAF; ends and bridges not checked; UniProt P06881 90-119, looked up, fragment)
capsaicin-induced blood flow changes (effect in words) ([1]; dural application prior to nasal capsaicin 100 nM): blocked
capsaicin-induced blood flow change after CGRP antagonist ([1]; prior topical administration, n=3): 5±4%

CC[C@H](C)[C@H](NC(=O)[C@@H](NC(=O)[C@H](CC(C)C)NC(=O)[C@H](C)NC(=O)[C@H](CCC(=O)O)NC(=O)[C@H](Cc1ccccc1)NC(=O)[C@H](Cc1ccc(O)cc1)NC(=O)[C@H](CC(C)C)NC(=O)[C@H](CCSC)NC(=O)[C@H](CCC(=O)O)NC(=O)[C@H](CCCCN)NC(=O)[C@H](C)NC(=O)[C@H](CCC(=O)O)NC(=O)[C@H](Cc1c[nH]c2ccccc12)NC(=O)[C@H](CCCNC(=N)N)NC(=O)[C@H](CCCNC(=N)N)NC(=O)[C@H](CCCNC(=N)N)NC(=O)[C@H](CCC(N)=O)NC(=O)[C@H](CCCNC(=N)N)NC(=O)[C@H](CCCNC(=N)N)NC(=O)[C@H](CCCCN)NC(=O)[C@H](CCCCN)NC(=O)[C@H](CCCNC(=N)N)NC(=O)CNC(=O)[C@@H](N)Cc1ccc(O)cc1)C(C)C)C(=O)N[C@@H](CCC(=O)O)C(=O)O [TAT-Scramble, reference compound] (H-YGRKKRRQRRRWEAKEMLYFEALVIE-OH; N-terminus and C-terminus assumed)
tissue distribution (dot blot, anti-TAT antibody) ([2]; 15 min post-injection): detected in spleen and largely concentrated in lumbar dorsal root ganglion (DRG) and lumbar section of the spinal cord
tissue distribution (dot blot, anti-TAT antibody) ([2]; 1 h post-injection): also detected in kidney, brain, spinal cord and was abundant in the DRG
Light-Dark Box: Dark box latency to exit [3, 6]: 53.0 ± 11.5 s
Light-Dark Box: Light box entries [3, 6]: 8.2 ± 0.8
LDBT time in the light box ([3]; mouse, in vivo): approximately 25%
EPM time in the open arm compared to the closed arm ([4]; 10 mg/kg): approximately 30%
Elevated Plus Maze: Closed arm entries [4, 6]: 16.3 ± 2.0
Elevated Plus Maze: Closed arm latency to enter [4, 6]: 6.3 ± 2.5 s
Elevated Plus Maze: Closed arm latency to exit [4, 6]: 14.7 ± 3.0 s
Elevated Plus Maze: Open arm entries [4, 6]: 11.5 ± 1.6
Elevated Plus Maze: Open arm latency to enter [4, 6]: 5.9 ± 2.3 s
Elevated Plus Maze: Open arm latency to exit [4, 6]: 14.5 ± 3.1 s
Tail Suspension Test: Active [5, 6]: 221.0 ± 11.3 s
TST immobility as share of test duration ([5]; mouse, in vivo): approximately 26%
